In paper PMC5378280 (Cancer Science, 2017):

Experiments:
Japanese RRMM patients = details: carfilzomib monotherapy; cited from earlier work
[1] = Pharmacokinetics of carfilzomib in plasma; format: in vivo, human; details: compared with carfilzomib monotherapy study

Effect of lenalidomide and dexamethasone on carfilzomib pharmacokinetics [1]: did not appear to be affected
SMILES: CC(C)C[C@H](NC(=O)[C@H](CCc1ccccc1)NC(=O)CN1CCOCC1)C(=O)N[C@@H](Cc1ccccc1)C(=O)N[C@@H](CC(C)C)C(=O)[C@@]1(C)CO1 [carfilzomib]
ORR (Japanese RRMM patients): 22.5%
